Assay results published in ChEMBL document CHEMBL3046898, “Synthesis and characterization of flurbiprofen hydrazide derivatives as potential anti-HCV, anticancer and antimicrobial agents” (2013).
Activity calls are given as the source filed them. No cut-off for these calls is given here.

What was measured:
Staphylococcus cohnii [1] = test: Antibacterial activity against Staphylococcus cohnii at 10 mg/ml after 24 hrs by disc diffusion method; type: functional
Photorhabdus luminescens [2] = test: Antibacterial activity against Photorhabdus luminescens at 10 mg/ml after 24 hrs by disc diffusion method; type: functional, organism-based
Aspergillus = test: Antifungal activity against Aspergillus at 10 mg/ml after 72 hrs by disc diffusion method; type: functional, organism-based
Nakaseomyces glabratus = test: Antifungal activity against Candida glabrata at 10 mg/ml after 48 hrs by disc diffusion method; type: functional, organism-based
Photorhabdus luminescens [3] = test: Antibacterial activity against Photorhabdus luminescens at 6.25 to 200 ug/ml after 24 hrs by microwell dilution method; type: functional, organism-based
Proteus vulgaris [4] = test: Antibacterial activity against Proteus vulgaris at 10 mg/ml after 24 hrs by disc diffusion method; type: functional, organism-based
Escherichia coli [5] = test: Antibacterial activity against Escherichia coli at 10 mg/ml after 24 hrs by disc diffusion method; type: functional, organism-based
Staphylococcus aureus [6] = test: Antibacterial activity against Staphylococcus aureus at 6.25 to 200 ug/ml after 24 hrs by microwell dilution assay; type: functional, organism-based
Klebsiella aerogenes [7] = test: Antibacterial activity against Enterobacter aerogenes at 6.25 to 200 ug/ml after 24 hrs by microwell dilution method; type: functional, organism-based
Klebsiella aerogenes [8] = test: Antibacterial activity against Enterobacter aerogenes at 10 mg/ml after 24 hrs by disc diffusion method; type: functional, organism-based
Pseudomonas aeruginosa [9] = test: Antibacterial activity against Pseudomonas aeruginosa at 10 mg/ml after 24 hrs by disc diffusion method; type: functional, organism-based
Micrococcus lylae [10] = test: Antibacterial activity against Micrococcus lylae at 6.25 to 200 ug/ml after 24 hrs by microwell dilution method; type: functional, organism-based
[11] = test system: Acinetobacter radioresistens; test: Antibacterial activity against Acinetobacter radioresistens at 10 mg/ml after 24 hrs by disc diffusion method; type: functional, organism-based
Staphylococcus cohnii [12] = test: Antibacterial activity against Staphylococcus cohnii at 6.25 to 200 ug/ml after 24 hrs by microwell dilution assay; type: functional, organism-based
Pseudomonas aeruginosa [13] = test: Antibacterial activity against Pseudomonas aeruginosa at 6.25 to 200 ug/ml after 24 hrs by microwell dilution method; type: functional, organism-based
Micrococcus luteus [14] = test: Antibacterial activity against Micrococcus luteus at 6.25 to 200 ug/ml after 24 hrs by microwell dilution method; type: functional, organism-based
Salmonella paratyphi [15] = test: Antibacterial activity against Salmonella paratyphi at 6.25 to 200 ug/ml after 24 hrs by microwell dilution method; type: functional, organism-based; settings: Salmonella enterica subsp. enterica serovar Paratyphi A
Candida tropicalis = test: Antifungal activity against Candida tropicalis at 10 mg/ml after 48 hrs by disc diffusion method; type: functional, organism-based
Micrococcus luteus [16] = test: Antibacterial activity against Micrococcus luteus at 10 mg/ml after 24 hrs by disc diffusion method; type: functional, organism-based
Micrococcus lylae [17] = test: Antibacterial activity against Micrococcus lylae at 10 mg/ml after 24 hrs by disc diffusion method; type: functional, organism-based
Proteus vulgaris [18] = test: Antibacterial activity against Proteus vulgaris at 6.25 to 200 ug/ml after 24 hrs by microwell dilution method; type: functional, organism-based
Kluyveromyces marxianus = test: Antifungal activity against Kluyveromyces marxianus at 10 mg/ml after 48 hrs by disc diffusion method; type: functional, organism-based
Hepacivirus hominis = test: Inhibition of HCV N-terminal His-tagged NS5B RNA dependent RNA polymerase expressed in Escherichia coli DH5alpha using poly rA/U12 as primer at 200 uM after 60 mins by liquid scintillation counting
Candida albicans = test: Antifungal activity against Candida albicans at 10 mg/ml after 48 hrs by disc diffusion method; type: functional, organism-based
Candida parapsilosis = test: Antifungal activity against Candida parapsilosis at 10 mg/ml after 48 hrs by disc diffusion method; type: functional, organism-based
[19] = test system: Schwanniomyces occidentalis; test: Antifungal activity against Schwanniomyces occidentalis at 10 mg/ml after 48 hrs by disc diffusion method; type: functional, organism-based
Escherichia coli [20] = test: Antibacterial activity against Escherichia coli at 6.25 to 200 ug/ml after 24 hrs by microwell dilution method; type: functional, organism-based
Pichia membranifaciens = test: Antifungal activity against Pichia membranifaciens at 10 mg/ml after 48 hrs by disc diffusion method; type: functional, organism-based
Salmonella paratyphi [21] = test: Antibacterial activity against Salmonella paratyphi at 10 mg/ml after 24 hrs by disc diffusion method; type: functional, organism-based; settings: Salmonella enterica subsp. enterica serovar Paratyphi A
[22] = test system: Acinetobacter radioresistens; test: Antibacterial activity against Acinetobacter radioresistens at 6.25 to 200 ug/ml after 24 hrs by microwell dilution method; type: functional, organism-based
Staphylococcus aureus [23] = test: Antibacterial activity against Staphylococcus aureus at 10 mg/ml after 24 hrs by disc diffusion method; type: functional

| SMILES | Activity (Staphylococcus cohnii [1]) | Activity (Photorhabdus luminescens [2]) | Activity (Aspergillus) | Activity (Nakaseomyces glabratus) | Activity (Photorhabdus luminescens [3]) | Activity (Proteus vulgaris [4]) | Activity (Escherichia coli [5]) | Activity (Staphylococcus aureus [6]) | Activity (Klebsiella aerogenes [7]) | Activity (Klebsiella aerogenes [8]) | Activity (Pseudomonas aeruginosa [9]) | Activity (Micrococcus lylae [10]) | Activity [11] | Activity (Staphylococcus cohnii [12]) | Activity (Pseudomonas aeruginosa [13]) | Activity (Micrococcus luteus [14]) | Activity (Salmonella paratyphi [15]) | Activity (Candida tropicalis) | Activity (Micrococcus luteus [16]) | Activity (Micrococcus lylae [17]) | further results |
| --- | --- | --- | --- | --- | --- | --- | --- | --- | --- | --- | --- | --- | --- | --- | --- | --- | --- | --- | --- | --- | --- |
| CC(C(=O)NN1C(=O)CSC1c1ccccc1Cl)c1ccc(-c2ccccc2)c(F)c1 (centres undefined) | inactive | inactive | inactive | inactive | inactive | inactive | inactive | inactive | inactive | inactive | inactive | inactive | inactive | inactive | inactive | inactive | inactive | inactive | inactive | inactive | Activity (Proteus vulgaris [18]): inactive; Activity (Kluyveromyces marxianus): inactive; inhibition (Hepacivirus hominis): 70%; Activity (Candida albicans): inactive; Activity (Candida parapsilosis): inactive; Activity [19]: inactive; Activity (Escherichia coli [20]): inactive; Activity (Pichia membranifaciens): inactive; Activity (Salmonella paratyphi [21]): inactive; Activity [22]: inactive; Activity (Staphylococcus aureus [23]): inactive |
| CCNC(=S)NNC(=O)C(C)c1ccc(-c2ccccc2)c(F)c1 (centres undefined) | inactive | inactive | inactive | inactive | inactive | inactive | inactive | inactive | inactive | inactive | inactive | inactive | inactive | inactive | inactive | inactive | inactive | inactive | inactive | inactive | Activity (Proteus vulgaris [18]): inactive; Activity (Kluyveromyces marxianus): inactive; inhibition (Hepacivirus hominis): 8%; Activity (Candida albicans): inactive; Activity (Candida parapsilosis): inactive; Activity [19]: inactive; Activity (Escherichia coli [20]): inactive; Activity (Pichia membranifaciens): inactive; Activity (Salmonella paratyphi [21]): inactive; Activity [22]: inactive; Activity (Staphylococcus aureus [23]): inactive |
| CC(C(=O)N/N=C1\SCC(=O)N1C)c1ccc(-c2ccccc2)c(F)c1 (centres undefined) | inactive | inactive | inactive | inactive | inactive | inactive | inactive | inactive | inactive | inactive | inactive | inactive | inactive | inactive | inactive | inactive | inactive | inactive | inactive | inactive | Activity (Proteus vulgaris [18]): inactive; Activity (Kluyveromyces marxianus): inactive; inhibition (Hepacivirus hominis): 8%; Activity (Candida albicans): inactive; Activity (Candida parapsilosis): inactive; Activity [19]: inactive; Activity (Escherichia coli [20]): inactive; Activity (Pichia membranifaciens): inactive; Activity (Salmonella paratyphi [21]): inactive; Activity [22]: inactive; Activity (Staphylococcus aureus [23]): inactive |
| CC(C(=O)NN1C(=O)CSC1c1cccc(F)c1)c1ccc(-c2ccccc2)c(F)c1 (centres undefined) | inactive | inactive | inactive | inactive | inactive | inactive | inactive | inactive | inactive | inactive | inactive | inactive | inactive | inactive | inactive | inactive | inactive | inactive | inactive | inactive | Activity (Proteus vulgaris [18]): inactive; Activity (Kluyveromyces marxianus): inactive; inhibition (Hepacivirus hominis): 8%; Activity (Candida albicans): inactive; Activity (Candida parapsilosis): inactive; Activity [19]: inactive; Activity (Escherichia coli [20]): inactive; Activity (Pichia membranifaciens): inactive; Activity (Salmonella paratyphi [21]): inactive; Activity [22]: inactive; Activity (Staphylococcus aureus [23]): inactive |
